Assay results as given in patent US11331299B2, “Medicinal use of serrulatane diterpenes” (The University of Sydney, priority 2016, dated 2022).
Read-outs that look alike come from different tables or passages of the source.

What was measured:
[1] = target: T1, L3MBTL3 (h) MBT domain (Homo sapiens, UniProt Q96JM7); test: Epigenetic binding assay, MBT domain; details: read-out: % Inhibition of Control Specific Binding
T1 construct: Tudor, MBT and chromo domains gauge the degree of lysine methylation; Eurofins CEREP (France), contract laboratory
T1 sequence (Q96JM7 225-555 limits assumed): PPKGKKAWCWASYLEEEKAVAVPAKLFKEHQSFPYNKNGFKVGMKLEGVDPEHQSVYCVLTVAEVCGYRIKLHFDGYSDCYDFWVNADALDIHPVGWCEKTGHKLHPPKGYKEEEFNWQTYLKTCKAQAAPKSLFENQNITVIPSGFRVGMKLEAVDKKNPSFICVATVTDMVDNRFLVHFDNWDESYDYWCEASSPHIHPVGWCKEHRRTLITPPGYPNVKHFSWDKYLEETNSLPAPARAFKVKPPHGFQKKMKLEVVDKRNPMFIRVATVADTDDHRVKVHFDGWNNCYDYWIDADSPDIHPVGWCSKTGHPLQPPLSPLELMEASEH

[2] = system: SK-NEP-1 kidney; test: OncoPanel cell proliferation assay (10-day); assay type: cell-based; details: Homo sapiens; for EC50: read-out: Cell Count EC50; for IC50: read-out: Cell Count IC50
[3] = target: MLL complex (h) (Homo sapiens, UniProt Q03164); test: Epigenetic enzyme assay, Methyltransferases (MTs); assay type: biochemical; details: for inhibition at 10 µM: read-out: % Inhibition of Control Values
[4] = target: T2, CBX6 (h) chromodomain (Homo sapiens, UniProt O95503); test: Epigenetic binding assay, Chromodomain; details: read-out: % Inhibition of Control Specific Binding
T2 construct: Recognition and specificity determinants of the human cbx chromodomains; Eurofins CEREP (France), contract laboratory
T2 sequence (O95503 11-69 limits assumed): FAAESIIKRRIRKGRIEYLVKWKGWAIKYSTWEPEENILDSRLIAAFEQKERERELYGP

[5] = target: T3, HDAC8 (h) (Homo sapiens, UniProt Q9BY41); test: Epigenetic enzyme assay, Histone deacetylase (HDACs); assay type: biochemical; details: read-out: % Inhibition of Control Values
T3 sequence (Q9BY41 1-377): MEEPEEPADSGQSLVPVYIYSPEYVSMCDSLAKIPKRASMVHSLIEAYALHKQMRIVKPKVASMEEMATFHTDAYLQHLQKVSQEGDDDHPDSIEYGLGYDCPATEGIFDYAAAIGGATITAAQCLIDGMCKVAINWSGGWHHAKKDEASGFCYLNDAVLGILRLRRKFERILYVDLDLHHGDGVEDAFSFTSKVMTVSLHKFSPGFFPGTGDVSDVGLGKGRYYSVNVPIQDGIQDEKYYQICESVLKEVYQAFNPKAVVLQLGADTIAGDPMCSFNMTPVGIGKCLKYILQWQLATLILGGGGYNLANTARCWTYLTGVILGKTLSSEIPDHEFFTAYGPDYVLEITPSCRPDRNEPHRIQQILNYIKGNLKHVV

[6] = target: T4, CYP1A (Homo sapiens, UniProt P05177); test: Cytochrome P450 Inhibition (CYP panel); assay type: in vitro ADME; details: probe phenacetin
T4 sequence (P05177 1-516): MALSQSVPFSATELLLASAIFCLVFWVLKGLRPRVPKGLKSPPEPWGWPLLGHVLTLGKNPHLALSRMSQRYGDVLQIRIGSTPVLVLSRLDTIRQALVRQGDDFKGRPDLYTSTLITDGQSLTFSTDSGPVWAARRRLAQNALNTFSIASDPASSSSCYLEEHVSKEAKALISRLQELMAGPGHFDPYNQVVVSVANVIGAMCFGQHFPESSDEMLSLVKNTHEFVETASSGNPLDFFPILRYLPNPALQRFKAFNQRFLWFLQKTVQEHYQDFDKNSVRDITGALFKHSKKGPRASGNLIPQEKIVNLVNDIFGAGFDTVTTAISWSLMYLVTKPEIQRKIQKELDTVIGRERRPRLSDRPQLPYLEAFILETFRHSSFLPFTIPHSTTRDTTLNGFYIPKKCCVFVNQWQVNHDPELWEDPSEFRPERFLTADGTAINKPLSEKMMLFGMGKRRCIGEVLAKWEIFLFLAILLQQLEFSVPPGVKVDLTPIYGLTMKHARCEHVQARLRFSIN

[7] = target: T5, CYP1A (Phenacetin Substrate) (Homo sapiens, UniProt P05177); test: Cytochrome P450 Inhibition (CYP panel); assay type: in vitro ADME; details: read-out: IC50 (estimated)
T5 sequence (P05177 1-516): T4 sequence (P05177 1-516)

[8] = target: T6, Lipoxygenase 12-LO (Homo sapiens, UniProt P18054); test: Lipoxygenase 12-LO; assay type: biochemical; details: assay year 2015, read-out: % Control Response
T6 construct: Human platelets; from tissue; host or cells: human platelets
T6 sequence (P18054 1-663): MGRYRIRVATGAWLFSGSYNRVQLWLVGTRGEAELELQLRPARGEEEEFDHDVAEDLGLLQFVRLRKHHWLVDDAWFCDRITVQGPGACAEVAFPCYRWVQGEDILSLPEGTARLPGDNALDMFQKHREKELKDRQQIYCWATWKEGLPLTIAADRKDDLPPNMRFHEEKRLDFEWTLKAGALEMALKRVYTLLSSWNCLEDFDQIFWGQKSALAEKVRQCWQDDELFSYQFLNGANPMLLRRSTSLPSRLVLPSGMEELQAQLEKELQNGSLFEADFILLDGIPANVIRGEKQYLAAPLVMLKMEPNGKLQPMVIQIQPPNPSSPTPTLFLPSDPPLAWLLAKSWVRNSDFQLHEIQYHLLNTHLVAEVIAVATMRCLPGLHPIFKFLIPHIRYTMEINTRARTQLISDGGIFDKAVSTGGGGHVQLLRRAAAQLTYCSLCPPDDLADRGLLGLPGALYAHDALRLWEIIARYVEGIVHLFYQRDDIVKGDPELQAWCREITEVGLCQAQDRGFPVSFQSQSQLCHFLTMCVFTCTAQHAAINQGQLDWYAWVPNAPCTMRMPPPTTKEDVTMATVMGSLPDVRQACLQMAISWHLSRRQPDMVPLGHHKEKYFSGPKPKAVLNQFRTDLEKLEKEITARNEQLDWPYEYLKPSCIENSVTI
Description: The in vitro pharmacological studies were conducted by Eurofins PanLab (Taiwan) using the parameters shown in Table 13 with respect to appropriate literature references.

[9] = target: T7, CYP2C9 (Homo sapiens, UniProt P11712); test: Cytochrome P450 Inhibition (CYP panel); assay type: in vitro ADME; details: human liver microsomes, probe diclofenac; for inhibition at 10 µM: read-out: % Inhibition of Control Values
T7 construct: Human liver microsomes; from tissue; host or cells: human liver microsomes
T7 sequence (P11712 whole entry): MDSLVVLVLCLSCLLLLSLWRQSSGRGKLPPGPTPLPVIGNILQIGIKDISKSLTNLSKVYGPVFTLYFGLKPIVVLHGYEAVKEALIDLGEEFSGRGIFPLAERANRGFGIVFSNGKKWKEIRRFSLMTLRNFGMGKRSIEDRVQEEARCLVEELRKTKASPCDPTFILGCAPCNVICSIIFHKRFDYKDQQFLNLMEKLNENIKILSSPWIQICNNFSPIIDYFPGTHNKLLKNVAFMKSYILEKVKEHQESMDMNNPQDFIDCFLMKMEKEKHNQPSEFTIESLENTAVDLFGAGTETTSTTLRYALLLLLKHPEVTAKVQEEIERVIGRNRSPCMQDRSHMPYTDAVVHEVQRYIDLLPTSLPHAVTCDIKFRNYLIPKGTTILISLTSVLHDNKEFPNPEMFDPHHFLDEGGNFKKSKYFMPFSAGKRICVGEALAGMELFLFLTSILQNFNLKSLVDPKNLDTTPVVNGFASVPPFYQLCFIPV

[10] = SK-NEP-1, Kidney, read-out: Cell Count GI50
[11] = human, human liver microsomes, read-out: % inhibition
[12] = CYP1A (phenacetin sub.), Human liver microsomes, read-out: % Inhibition of Control Values

Compound | inhibition at 10 µM [1] [%] | GI50 ([2]; SK-NEP-1, read-out: GI50) [nM] | EC50 ([2]; SK-NEP-1, Kidney) [nM] | GI50 [2, 10] [nM] | IC50 ([2]; SK-NEP-1, Kidney) [nM] | inhibition at 10 µM [3] [%] | inhibition at 10 µM [4] [%] | inhibition at 10 µM [5] [%] | inhibition at 1 µM [6, 11] [%] | inhibition at 10 µM [6, 11] [%] | inhibition at 1 µM [6, 12] [%] | inhibition at 10 µM [6, 12] [%] | IC50 [7] [nM] | remaining activity at 10 µM [8] [%] | inhibition at 1 µM [9] [%] | inhibition at 10 µM [9] [%] | IC50 ([3]; read-out: Reference IC50) [nM]
CC(C)=CCC[C@H](CO)[C@@H]1CC[C@@H](C)c2c1cc(C)c(O)c2O [Compound 1, 7,8,18-trihydroxyserrulat-14-ene] | 22 | 6.18 | 10 | 6 | 10 | 2 | -1 | -8 | 28 | 63 to 92 | 28 | 92 | < 10000 | 60 | 5 | 77 | 
CC(C)=CCC[C@@H]1COc2c(C)cc(O)c3c2[C@H]1CC[C@H]3C [Compound 3, 5,18-epoxy-8-hydroxyserrulat-14-ene] | 33 |  |  |  |  | 11 | 58 | 0 |  |  |  |  |  | 29 |  |  | 
Nc1ncnc2c1ncn2[C@@H]1O[C@H](CSCC[C@H](N)C(=O)O)[C@@H](O)[C@H]1O [SAH] |  |  |  |  |  |  |  |  |  |  |  |  |  |  |  |  | 970
CC(C)=CCC[C@H](C)[C@@H]1CC[C@@H](C)c2c1cc(C)c(O)c2O [Compound 4, 7,8-dihydroxyserrulat-14-ene] |  |  | 9620 | 9620 | 9630 |  |  |  |  | 63 to 92 | 14 | 85 | < 10000 |  | 31 | 91 | 
CC(C)=CCC[C@@H]1C(O)Oc2c(C)cc(O)c3c2[C@H]1CC[C@H]3C (some centres unmarked) [Compound 2, 5,18-epoxyserrulat-14-en-8,18-diol] | 29 | 60.6 | 60 | 60 | 60 | 22 | 27 | -19 | 38 | 63 to 92 | 38 | 63 | < 10000 | 40 | 20 | 72 | 
